Measured values as given in patent publication US5556846A, “17-heterocyclyl-14beta-5alpha-androstane, androstene and androstadiene derivatives active on the cardiovascular system, and pharmaceutical compositions containing same” (Sigma-Tau Industrie Farmaceutiche Riunite S.p.A., priority 1992, dated 1996).

Experiments:
[1] = target: T1, Na^+,K^+ -ATPase (Homo sapiens, UniProt P05023); assay: displacement of the specific 3H-ouabain binding from the purified Na+,K+-ATPase receptor
T1 construct: Na^+,K^+ -ATPase receptor purified according to Jorghensen; from tissue
Description: (§1) To test the affinity for the receptor site of the Na^+,K^+ -ATPase and the inhibitory activity on the enzyme, the following tests were used: a) displacement of the specific ^3 H-ouabain binding from the Na^+,K^+ -ATPase receptor purified according to Jorghensen (Jorghensen P., BBA, 1974, 356, 36) and Erdmann (Erdmann E. et at., Arzneim.Forsh., 1984, 34, 1314): b) inhibition of the activity of the purified Na^+,K^+ -ATPase measured as % of hydrolysis of ^32 P-ATP in presence and in absence of the tested compound (Doucet A. et at., Am.

[2] = system: spontaneous hypertensive rats (MHS); assay: blood pressure lowering in spontaneous hypertensive MHS rats (indirect tail-cuff, oral, ten days); type: in vivo, rat (Milan hypertensive strain; conditions: n = 7, 20 mg/Kg/os daily in METHOCEL 0.5% w/v; for SBP (systolic blood pressure): controls 172 +/- 2.0; for HR (heart rate): controls 328 +/- 8.6
Description: To test the affinity for the receptor site of the Na^+,K^+ -ATPase and the inhibitory activity on the enzyme, the following tests were used: a) displacement of the specific ^3 H-ouabain binding from the Na^+,K^+ -ATPase receptor purified according to Jorghensen (Jorghensen P., BBA, 1974, 356, 36) and Erdmann (Erdmann E. et at., Arzneim.Forsh., 1984, 34, 1314): b) inhibition of the activity of the purified Na^+,K^+ -ATPase measured as % of hydrolysis of ^32 P-ATP in presence and in absence of the tested compound (Doucet A. et at., Am. […] The ability of these compounds to lower blood pressure was tested by using animal models with genetic arterial hypertension, in particular, spontaneous hypertensive rats of the Milan (MHS) (Bianchi G., Ferrari P., Barber B. The Milan Hypertensive strain. In Handbook of hypertension. Vol.4: Experimental and genetic models of hypertension. Ed. W. de jong-Elsevier Science Publishers B.V., 1984: 328-349).
The procedure adopted to test the antihypertensive activity of the compounds on the above mentioned model was the following: systolic blood pressure (SBP) and heart rate (HR) were measured by an indirect tail-cuff method in three-month old hypertensive rats (MHS) before beginning the treatment (basal values). The rats were then subdivided in two groups of at least 7 animals each, one receiving the compound the other, the control group, receiving only the vehicle. The compound, suspended in METHOCEL 0.5% (w/v), was administered daily by mouth, for ten days. SBP and HR were measured daily 6 and 24 hours after the treatment. At the end of the ten day treatment period, a washout period of at least two days was carried out, in order to check for how long the SBP was mantained low or the basal values were re-established.

[3] = target: T1, Na^+,K^+ -ATPase; assay: inhibition of the activity of the purified Na+,K+-ATPase measured as % of hydrolysis of 32P-ATP; type: biochemical
Description: as §1

[4] = literature statement; cited from earlier work
[5] = 3H-ouabain displacement, purified Na+,K+-ATPase, read-out: Binding ^3 H-Ouab. Displacement log IC50 (converted)
[6] = purified Na+,K+-ATPase, 32P-ATP hydrolysis, read-out: Inhibitory Activity log IC50 (converted)

| Structure (SMILES) | IC50 [1, 5] [µM] | IC50 [3, 6] [µM] | other results |
| --- | --- | --- | --- |
| C[C@]12CC[C@H]3[C@@H](CCC4=C[C@@H](OCCCN)CC[C@@]43C)[C@@]1(O)CC[C@]2(O)c1ccoc1 [Comp. I - aj, 3β-(3-Aminopropoxy)-17β-(3-furyl)androst-4-ene-14β,17α-diol] | 1 | 12.6 | SBP (systolic blood pressure) [2]: 150 +/- 3.9 mm Hg; HR (heart rate) [2]: 310 +/- 9.0 beats/min. |
| C[C@]12CC[C@H](O)C[C@@H]1CC[C@@H]1[C@@H]2CC[C@]2(C)[C@@](O)(c3ccsc3)CC[C@]12O [Comp. I - bk, 17β-(3-Thienyl)-5α-androstane-3β,14β,17α-triol] | 7.94 | 63.1 | – |
| C[C@]12CC[C@H]3[C@@H](CC=C4C[C@@H](O)CC[C@@]43C)[C@@]1(O)CC[C@]2(O)c1ccco1 [Comp. I - bq, 17β-(2-Furyl)androst-5-ene-3β,14β,17α-triol] | 5.01 | 79.4 | – |
| C[C@]12CC[C@H]3[C@@H](CC=C4C[C@@H](O)CC[C@@]43C)[C@@]1(O)CC[C@]2(O)c1nccs1 [Comp. I - bn, 17β-(2-Thiazolyl)androst-5-ene-3β,14β,17α-triol] | 7.94 | 63.1 | – |
| C[C@]12C=C[C@H](O)C[C@@H]1CC[C@@H]1[C@@H]2CC[C@]2(C)[C@@](O)(c3ccoc3)CC[C@]12O [Comp. I - ab, 17β-(3-Furyl)-5α-androst-1-ene-3β,14β, 17α-triol] | 3.98 | 31.6 | – |
| C[C@]12CC[C@H]3[C@@H](CCC4=C[C@@H](OCCCN)CC[C@@]43C)[C@@]1(O)CC[C@]2(O)c1ccccc1 [Comp. I - ae, 3β-(3-Aminopropoxy)-17β-phenylandrost-4-ene-14β,17α-diol] | – | – | SBP (systolic blood pressure) [2]: 157 +/- 3.7 mm Hg; HR (heart rate) [2]: 312 +/- 9.4 beats/min. |
| C[C@]12CC[C@H]3[C@@H](CCC4=C[C@@H](OCCN5CCCC5)CC[C@@]43C)[C@@]1(O)CC[C@]2(O)c1ccoc1 [Comp. I - br, 3β-(2-(1-Prrolidinyl)ethoxy)-17β-(3-furyl)androst-4-ene-14β,17α-diol] | 1.58 | 25.1 | – |
| C[C@]12CC[C@H](O)C[C@@H]1CC[C@@H]1[C@@H]2CC[C@]2(C)[C@@](O)(c3cccnc3)CC[C@]12O [Comp. I - bl, 17β-(3-Pyridyl)-5α-androstane-3β,14β,17α-triol] | 5.01 | 63.1 | SBP (systolic blood pressure) [2]: 156 +/- 3.5 mm Hg; HR (heart rate) [2]: 318 +/- 9.5 beats/min. |
| C[C@]12CC[C@H](O)C[C@@H]1CC[C@@H]1[C@@H]2CC[C@]2(C)[C@@](O)(c3ccccc3)CC[C@]12O [Comp. I - ay, 17β-Phenyl-5α-androstane-3β,14β,17α-triol] | 5.01 | 79.4 | – |
| COc1ccc([C@@]2(O)CC[C@]3(O)[C@@H]4CCC5=C[C@@H](O)CC[C@]5(C)[C@H]4CC[C@]23C)cc1 [Comp. I - bi, 17β-(4-Methoxyphenyl)androst-4-ene-3β,14β,17α-triol] | 3.16 | 39.8 | – |
| C[C@]12CC[C@H](O)C[C@H]1CC[C@@H]1[C@@H]2CC[C@]2(C)[C@@](O)(C3=CC(=O)OC3)CC[C@]12O [Ref. comp., 3β,14β,17α-trihydroxy-5β-card-20(22)-enolide, reference compound] | – | – | IC50 [1]: 1.26 µM; antihypertensive action [4]: do not show antihypertensive action; SBP (systolic blood pressure) [2]: 174 +/- 2.1 mm Hg; HR (heart rate) [2]: 340 +/- 10.2 beats/min.; IC50 [3]: 5.01 µM |
| C[C@]12CC[C@H]3[C@@H](CCC4=C[C@@H](OCCO)CC[C@@]43C)[C@@]1(O)CC[C@]2(O)c1ccoc1 [Comp. I - ai, 3β-(2-Hydroxyethoxy)-17β-(3-furyl)androst-4-ene-14β,17α-diol] | 5.01 | 39.8 | – |
| CNCCO[C@@H]1C=C2CC[C@@H]3[C@H](CC[C@]4(C)[C@@](O)(c5ccoc5)CC[C@]34O)[C@@]2(C)CC1 [Comp. I - bt, 3β-(2-Methylaminoethoxy)-17β-(3-furyl)androst-4-ene-14β,17α-diol] | 3.16 | 50.1 | – |
| C[C@]12CC[C@H]3[C@@H](CC=C4C[C@@H](O)CC[C@@]43C)[C@@]1(O)CC[C@]2(O)c1ccc(Cl)cc1 [Comp. I - bj, 17β-(4-Chlorophenyl)androst-5-ene-3β,14β,17α-triol] | 5.01 | 100 | – |
| C[C@]12CC[C@H]3[C@@H](CCC4=C[C@@H](OCCCNC(=N)N)CC[C@@]43C)[C@@]1(O)CC[C@]2(O)c1ccoc1 [Comp. I - bu] | 3.16 | 63.1 | – |
| C[C@]12CC[C@H]3[C@@H](CCC4=C[C@@H](O)CC[C@@]43C)[C@@]1(O)CC[C@]2(O)c1ccccc1 [Comp. I - ac, 17β-Phenylandrost-4-ene-3β,14β,17α-triol] | 6.31 | 79.4 | – |
| C[C@]12CC[C@H]3[C@@H](C=CC4=C[C@@H](O)CC[C@@]43C)[C@@]1(O)CC[C@]2(O)c1ccccc1 [Comp. I - au, 17β-Phenylandrosta-4,6-diene-3β,14β,17α-triol] | 5.01 | 31.6 | – |
| C[C@]12CC[C@H]3[C@@H](CCC4=C[C@@H](OCC(N)CN)CC[C@@]43C)[C@@]1(O)CC[C@]2(O)c1ccoc1 (stereo partly drawn) [Comp. I - bw, 3β-((2RS)-2,3-Diaminopropoxy)-17β-(3-furyl)-androst-4-ene-14β,17α-diol] | 3.98 | 100 | – |
| C[C@]12CC[C@H]3[C@@H](CC=C4C[C@@H](O)CC[C@@]43C)[C@@]1(O)CC[C@]2(O)c1ccccc1 [Comp. I - ap, 17β-Phenylandrost-5-ene-3β,14β,17α-triol] | 7.94 | 100 | – |
| CN(C)c1ccc([C@@]2(O)CC[C@]3(O)[C@@H]4CC=C5C[C@@H](O)CC[C@]5(C)[C@H]4CC[C@]23C)cc1 [Comp. I - bp, 17β-(4-(N,N-Dimethylaminophenyl))androst-5-ene-3β,14β,17α-triol] | 6.31 | 50.1 | – |
| C[C@]12CC[C@H]3[C@@H](CCC4=C[C@@H](SCCCN)CC[C@@]43C)[C@@]1(O)CC[C@]2(O)c1ccoc1 [Comp. I - by, 3β-(3-Aminopropylthio)-17β-(3-furyl)androst-4-ene-14β,17α-diol] | 1.58 | 12.6 | – |
| C[C@]12CC[C@H]3[C@@H](CCC4=C[C@@H](OCC(O)CO)CC[C@@]43C)[C@@]1(O)CC[C@]2(O)c1ccoc1 (stereo partly drawn) [Comp. I - bv, 3β-((2RS)-2,3-Dihydroxypropoxy)-17β-(3-furyl)androst-4-ene-14β,17α-diol] | 3.98 | 79.4 | – |
| C[C@]12CC[C@H]3[C@@H](CCC4=C[C@@H](O)CC[C@@]43C)[C@@]1(O)CC[C@]2(O)c1ccoc1 [Comp. I - ah, 17β-(3-Furyl)androst-4-ene-3β,14β,17α-triol] | 3.16 | 50.1 | SBP (systolic blood pressure) [2]: 154 +/- 4.1 mm Hg; HR (heart rate) [2]: 315 +/- 10.1 beats/min. |
